Tests used:
Substance-K receptor = biological target: T1, Substance-K receptor (Homo sapiens, UniProt P21452); experiment: Binding affinity towards Tachykinin receptor 2 in CHO cells using [3H]-neurokinin A as radioligand; assay type: cell-based
T1 sequence (P21452 whole entry): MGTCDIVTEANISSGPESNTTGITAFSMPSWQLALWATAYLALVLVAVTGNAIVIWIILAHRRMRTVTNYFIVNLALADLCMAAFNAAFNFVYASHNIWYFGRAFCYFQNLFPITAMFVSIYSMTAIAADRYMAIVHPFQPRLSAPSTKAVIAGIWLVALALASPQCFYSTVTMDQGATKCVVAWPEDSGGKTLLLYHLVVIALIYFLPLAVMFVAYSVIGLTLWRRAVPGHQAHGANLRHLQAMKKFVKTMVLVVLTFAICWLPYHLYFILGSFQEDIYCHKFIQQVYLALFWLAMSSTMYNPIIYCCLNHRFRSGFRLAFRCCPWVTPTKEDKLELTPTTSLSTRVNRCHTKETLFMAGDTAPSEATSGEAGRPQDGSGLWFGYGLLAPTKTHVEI

Substance-P receptor = Substance-P receptor (Homo sapiens, UniProt P25103); experiment: Binding affinity towards Tachykinin receptor 1 in CHO cells using [3H]-Sar SP as radioligand; assay type: cell-based
[1] = biological target: T2, Substance-K receptor (Homo sapiens) (UniProt P21452); conditions: 0.1 uM
T2 sequence (whole entry): T1 sequence (P21452 whole entry)
Description: Inhibitory activity against Tachykinin receptor 2 at a concentration of 0.1 uM

[2] = biological target: T2, Substance-K receptor (Homo sapiens); conditions: 1 uM
Description: Inhibitory activity against Tachykinin receptor 2 at a concentration of 1 uM

Substance-P receptor, sequence (P25103 whole entry): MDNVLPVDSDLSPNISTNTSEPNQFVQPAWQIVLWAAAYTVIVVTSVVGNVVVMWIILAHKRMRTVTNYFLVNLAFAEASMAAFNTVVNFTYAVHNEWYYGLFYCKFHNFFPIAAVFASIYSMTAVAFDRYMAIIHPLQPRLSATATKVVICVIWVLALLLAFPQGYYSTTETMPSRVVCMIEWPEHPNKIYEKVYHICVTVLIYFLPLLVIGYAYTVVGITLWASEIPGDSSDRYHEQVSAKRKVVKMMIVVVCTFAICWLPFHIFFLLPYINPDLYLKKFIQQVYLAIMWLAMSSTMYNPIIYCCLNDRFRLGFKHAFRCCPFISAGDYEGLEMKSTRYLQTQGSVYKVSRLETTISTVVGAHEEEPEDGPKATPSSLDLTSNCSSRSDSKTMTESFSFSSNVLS

SMILES | Ki (Substance-K receptor) [nM] | Ki (Substance-P receptor) [nM] | inhibition [1] [%] | inhibition [2] [%]
CC(=O)NC1(c2ccccc2)CCN(CC[C@H](CN(C)C(=O)c2ccccc2)c2ccc(Cl)c(Cl)c2)CC1 [SAREDUTANT] | 0.5 |  |  | 
CO/N=C(\COCc1cc(C(F)(F)F)cc(C(F)(F)F)c1)[C@H](CCN1CCC(O)(c2ccccc2)CC1)c1ccc(Cl)c(Cl)c1 | 7 | 20 |  | 
NC(=O)CN[C@@H](COCc1cc(C(F)(F)F)cc(C(F)(F)F)c1)[C@H](CCN1CCC(O)(c2ccccc2)CC1)c1ccc(Cl)c(Cl)c1 | 34 | 9 |  | 
NC(=O)CN[C@H](COCc1cc(C(F)(F)F)cc(C(F)(F)F)c1)C(c1ccccc1)c1ccccc1 |  | 0.9 |  | 
O/N=C(\COCc1cc(C(F)(F)F)cc(C(F)(F)F)c1)C(CCN1CCC(O)(c2ccccc2)CC1)c1ccc(Cl)c(Cl)c1 (configuration not stated) | 122 | 24 |  | 
O/N=C(/COCc1cc(C(F)(F)F)cc(C(F)(F)F)c1)C(CCN1CCC(O)(c2ccccc2)CC1)c1ccc(Cl)c(Cl)c1 (configuration not stated) | 358 | 34 |  | 
NC(=O)CNC(COCc1cc(C(F)(F)F)cc(C(F)(F)F)c1)C(CCN1CCC(O)(c2ccccc2)CC1)c1ccc(Cl)c(Cl)c1 (configuration not stated) | 34 | 4 |  | 
CO/N=C(\COCc1cc(C(F)(F)F)cc(C(F)(F)F)c1)[C@@H](CCN1CCC(O)(c2ccccc2)CC1)c1ccc(Cl)c(Cl)c1 | 397 | 33 |  | 
NC(=O)CN[C@H](COCc1cc(C(F)(F)F)cc(C(F)(F)F)c1)[C@@H](CCN1CCC(O)(c2ccccc2)CC1)c1ccc(Cl)c(Cl)c1 |  | 5 | 10 | 
CO/N=C(\COCc1cc(C(F)(F)F)cc(C(F)(F)F)c1)C(CCN1CCC(O)(c2ccccc2)CC1)c1ccc(Cl)c(Cl)c1 (configuration not stated) | 21 | 25 |  | 
NC(=O)CN[C@@H](COCc1cc(C(F)(F)F)cc(C(F)(F)F)c1)[C@@H](CCN1CCC(O)(c2ccccc2)CC1)c1ccc(Cl)c(Cl)c1 |  | 0.7 | 27 | 
CO/N=C(/COCc1cc(C(F)(F)F)cc(C(F)(F)F)c1)C(CCN1CCC(O)(c2ccccc2)CC1)c1ccc(Cl)c(Cl)c1 (configuration not stated) |  | 25 |  | 35

— ChEMBL document CHEMBL1132779, “The design and synthesis of novel NK1/NK2 dual antagonists” (Bioorg Med Chem Lett, 2000)
